In patent US20100267952A1, “USE OF NOVEL COMPOUND HAVING AFFINITY FOR AMYLOID, AND PROCESS FOR PRODUCTION OF THE SAME” (NIHON MEDI-PHYSICS CO., LTD., priority 2007, published 2010):
Like-named read-outs stand apart in the source and are kept apart here. Values belong to the molecule of their own block, whether it stands above or below them.

Tests used:
[1] = [11C]-labeled, rats; cited from earlier work
[2] = [125I]-labeled, normal mice; cited from earlier work
[3] = molecular target: T1, amyloid (aggregated Aβ1-40) (Homo sapiens, UniProt P05067); experiment: Measurement of affinity with amyloid: inhibition of [125I]3′-I-BTA-0 binding; settings: [125I]3′-I-BTA-0 400 pmol/L, amyloid 1 μmol/L, 22° C., 3 hours
T1 construct: Aβ1-40 (Peptide Institute, INC.) was dissolved in phosphate buffer (pH 7.4); purchased Peptide Institute, INC
T1 sequence (P05067 672-711 limits assumed): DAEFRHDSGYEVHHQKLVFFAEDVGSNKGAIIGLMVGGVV
Method: Affinity of the present compounds with amyloid was examined by the following in vitro binding tests.
(1) Aβ1-40 (Peptide Institute, INC.) was dissolved in phosphate buffer (pH 7.4) and shaken at 37° C. for 62-72 hours, to obtain a 1 mg/mL suspension of aggregated Aβ (hereinafter referred to as amyloid suspension in this Example).
(3) According to the method described in a literature (Wang, Y., et al., J. Labeled Compounds Radiopharmaceut. 44, 5239 (2001)), [^125I]2-(3′-iodo-4′-aminophenyl)benzothiazole (hereinafter referred to as […]) was prepared from a labeling precursor 2-(4′-aminophenyl)benzothiazole, and dissolved in ethanol.
(5) Samples in which [^125I]3′-I-BTA-0, each compound for evaluation and amyloid were dissolved in a 0.1% bovine serum albumin-containing phosphate buffer (pH 7.4) at final concentrations shown in Table 1-2 were prepared. The resulting samples were filled in each well (about 0.3 mL in volume) of a 96-well microplate.
(6) The microplate filled with the sample solutions was shaken at a given rate (400 rpm) at 22° C. for 3 hours. Then, each sample solution was filtered through a glass fiber filter (trade name: Mulutiscreen™-FC, manufactured by Millipore), to separate the [^125I]3′-I-BTA-0 attached to amyloid from the free [^125I]3′-I-BTA-0.
(7) The glass fiber filter used for the filtration of each sample solution was washed with a 0.1% bovine serum albumin-containing phosphate buffer (pH 7.4) (0.5 mL×5), and radioactivity of the glass fiber filter was measured with an autowell gamma system (manufactured by Aloka, Type: ARC-301B).
(8) Separately, a solution of containing 15 μmol/L of 6-Me-BTA-2, […] of [^125I]3′-I-BTA-0 and 1 μmol/L of Aβ1-40 were prepared and subjected to the same procedures as described above in (6) and (7) to measure a radioactivity level. The measured radioactivity level was defined as the background radioactivity level, and used in the calculation of the inhibition ratio (hereinafter referred to as BG).
(9) Using the radioactivity levels measured above in (7) and (8), the inhibition ratio was determined by the following formula (1-1).
A graph in which values converted by probit transformation from the obtained inhibition ratios were plotted relative to logarithms of concentrations of compounds for evaluation was prepared to obtain an approximate straight line by the least square method. Using the line, the concentration of each compound for evaluation was determined, at which the radioactivity level is half of the level of the sample free from each compound for evaluation, and was defined as a 50% inhibition concentration of each compound (hereinafter referred to as IC50% value). Using the value as an indicator, affinity of each compound for evaluation with amyloid (aggregated Aβ1-40) was evaluated.

[4] = system: Salmonella typhimurium TA98; experiment: Reverse mutation test (Ames test), TA98; format: cell-based
Method: (§1) In order to examine mutagenicity of Compound I-1, I-2, I-4 and I-5, reverse mutation test using Salmonella typhimurium TA98 and TA100 (hereinafter referred to as Ames test) was conducted.
(§2) The test was conducted without addition of S9mix and with addition of S9mix. Dimethylsulfoxide was used as a negative control. A positive control was 2-(2-furyl)-3-(5-nitro-2-furyl)acrylamide in case S9mix was not added, and 2-aminoanthracene in case S9mix was added.
(§3) The amount of each sample to be added to the test plate was 7 dosages (geometric ratio 4) with the maximum dose being 1250 μg/plate for Compounds I-1 and I-5, and 7 dosages (geometric ratio 3) with the maximum dose being 5000 μg/plate for Compounds I-2 and I-4. After a sample to be examined and a strain (TA98 or TA100), or a sample to be examined, S9mix and the strain were mixed together, the mixture was multilayered using soft agar on a medium of a test plate, and then incubated at 37° C. for 48 hours.

[5] = system: Salmonella typhimurium TA100; experiment: Reverse mutation test (Ames test), TA100; format: cell-based
Method: as §1, §2, §3

amyloid (amylin) = molecular target: T2, amyloid (amylin) (Homo sapiens, UniProt P10997); experiment: Inhibition of binding of Thioflavin T to amyloid derived from amylin; settings: Thioflavin T 5 μmol/L
T2 construct: Amylin (human) (manufactured by Wako) was dissolved in phosphate buffer (pH 7.4); purchased Wako
T2 sequence (P10997 34-70 limits assumed): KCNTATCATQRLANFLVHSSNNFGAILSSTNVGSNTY
Method: Amylin is an amyloid accumulating in pancreas of type II diabetes.
(3) The amyloid suspension was dissolved in 50 mM phosphate buffer (pH 7.4) at a concentration of amylin of 15 μM.
(4) Samples in which each compound for evaluation and amyloid were dissolved in a 50 mM phosphate buffer (pH 7.4) at final concentrations shown in Table 2-1 were prepared.
(5) A sample in which 100 μL of 50 mM phosphate buffer (pH 7.4) and 50 μL of 50 mM glycin-NaOH buffer (pH 8.5) were mixed was made as a blank, and subjected to the same procedure as in (4) and used for a calculation of inhibition ratio.
(6) The microplate filled with the sample solutions was left to stand still for 30 hours. Then, fluorescence strength of each sample solution was measured (measurement conditions: excitation wavelength of 446 nm, emission wavelength of 490 nm) with microplate reader (type: SPECTRA MAX GEMINI XS, manufactured by Molecular Devices) (hereinafter, A denotes the fluorescence strength in a sample with zero (0) concentration of each compound for evaluation, and B denotes the fluorescence strength in a sample with 1.5 μmol/L or higher concentration of each compound for evaluation).
(7) Using the fluorescence strength measured above in (6), the following formula (2-1): […]
was used to determine the inhibition ratio.

[6] = system: Salmonella typhimurium TA98 and TA100; experiment: Reverse mutation test (Ames test), overall judgment; format: cell-based; settings: TA98 and TA100, with and without S9mix
Method: as §1, §2, §3
The numbers of reverse mutation colonies of the respective strains in the group treated with Compounds I-1, I-2, I-4 and I-5 were less than two times the number in the group treated with the negative control, regardless of addition of S9mix and the addition amount of a sample to be examined. From the aforementioned results, it is judged that Compounds I-1, I-2, I-4 and I-5 are negative in the Ames test and have no mutagenicity.

[7] = molecular target: T1, amyloid (aggregated Aβ1-40); experiment: Measurement of binding to amyloid (radiolabelled compound, glass fiber filtration); settings: amyloid 2.5-1000 nmol/L, 22° C., 3 hours
Method: (7) A relation between the amount of the Compound I-6 binding to amyloid and the amount of added amyloid was evaluated from the measurement results of (6). Unspecific binding was determined using a sample to which the Compound I-2 (non-RI labeled compound) was added to become 100 nM (at a final concentration) above in (4) (Example I-7).
(8) Using [^125I]-IMPY synthesized in the above Reference Example I-6, the same procedure as the above (2) to (6) were carried out to obtain control data (Comparative Example I-1).
A relation between the concentration of amyloid in the sample solution and the radioactive count on the glass fiber filter measured above in (6) is shown in FIG. 1-11. The radioactivity on the glass fiber was increased proportionally to the concentration (addition amount) of amyloid (Example I-7). […] Therefore, the radioactive count on the glass fiber is a value reflecting the amount of the compound attached to amyloid, and the slope of the graph which plotted the radioactive count relative to the concentration of amyloid is a value which can be an index representing the intensity of binding to amyloid.

[8] = Transferability into brain and clearance; format: in vivo, male Wistar rats; settings: rats, intravenous injection
Description: Three animals were used for Experiment I-20 and Comparative Experiment I-9, and two animals were used for Experiment I-21 at the respective time points.

[9] = molecular target: T3, amyloid (aggregated Aβ1-40) injected into amygdaloid nucleus (Homo sapiens, UniProt P05067); experiment: Confirmation of imaging of amyloid in brain (autoradiogram of brain slice, Aβ1-40 injected rat); format: in vivo, male Wistar rat; settings: tail vein, 16 MBq equivalent, brain removed 60 minutes after injection
T3 construct: Aβ1-40 (Peptide Institute, INC.) was dissolved in phosphate buffer (pH 7.4); purchased Peptide Institute, INC
T3 sequence (P05067 672-711): as the sequence (P05067 672-711 limits assumed) above
Method: The following experiment was carried out in order to examine whether amyloid in brain can be imaged by the compound of the present invention.
(1) Aβ1-40 (manufactured by Peptide Institute, INC.) was dissolved in phosphate buffer (pH 7.4) and shaken at 37° C. for 72 hours, to obtain 1 mg/mL of a suspension of aggregated Aβ (hereinafter referred to as amyloid suspension in this Example).
(2) 25 μL (corresponding to 25 μg) of the amyloid suspension was injected into an amygdaloid nucleus on one side of a male Wistar rat (7-week old). As a control, 25 μL of a phosphate buffered physiological saline solution (pH 7.4) was injected into an amygdaloid nucleus on the other side of the rat. The rats were examined 1 day after the injection of the amyloid suspension and the phosphate buffered physiological saline solution (pH 7.4).
This solution was injected into the rat through the tail vein (dosage: 0.5 mL, dosed radioactivity: 16 MBq equivalent).
(4) Brain was removed 60 minutes after the injection to prepare a brain slice of 10 μm in thickness with a microtome (type: CM3050S, manufactured by LEICA). The brain slice was exposed to an imaging plate for 20 hours, and then image analysis was carried out by use of a Bio-imaging Analyzer (type: BAS-2500; manufactured by FUJIFILM Corporation).

[10] = Partition coefficient based on the octanol extraction method; format: physicochemical; settings: octanol / 10 mmol/L phosphate buffer (pH 7.4)
Method: After the mixture was centrifuged with a low-speed centrifuge (2000 rpm×60 min.), the octanol layer and the water layer were sampled each in an amount of 1 mL, and subjected to measurement of radioactivity count with an autowell gamma system (manufactured by Aloka, Type: ARC-301B). Using the obtained radioactivity count, log Poctanol was calculated in accordance with the equation (1-2).

[11] = International Publication No. WO03/106439; cited from earlier work

SMILES: CNc1ccc(/C=C/c2ccc(O)cc2)cc1 [SB-13, (E)-4-methylamino-4′-hydroxystilbene]
clearance from normal tissues [1]: it cannot be said that the clearance is sufficiently fast

SMILES: CN(C)c1ccc(-c2nc3ccc(I)cc3s2)cc1 [TZDM, 6-iodo-2-[4′-(N,N-dimethylamino)phenyl]benzothiazole]
clearance from normal tissues [2]: insufficient in clearance from normal tissues

SMILES: FCCCOc1ccc(-c2cn3cc(Br)ccc3n2)cc1 [Compound I-1, 6-bromo-2-[4′-(3″-fluoropropoxy)phenyl]imidazo[1,2-a]pyridine]
IC50 [3]: 1.4 nM
Mutagenicity, TA98, With addition of S9mix [4]: Negative
Mutagenicity, TA98, Without addition of S9mix [4]: Negative
Mutagenicity, TA100, With addition of S9mix [5]: Negative
Mutagenicity, TA100, Without addition of S9mix [5]: Negative
Inhibition ratio (%) of binding of amyloid (amylin) to Thioflavin T (amyloid (amylin); compound 1.5 μmol/L): 14.5%
Inhibition ratio (%) of binding of amyloid (amylin) to Thioflavin T (amyloid (amylin); compound 15 μmol/L): 37.0%
Inhibition ratio (%) of binding of amyloid (amylin) to Thioflavin T (amyloid (amylin); compound 30 μmol/L): 43.7%
Ames test judgment [6]: negative

SMILES: CN(C)c1ccc(/C=C/c2ccc(I)cc2)cc1 [m-I—SB, (E)-4-dimethylamino-4′-iodostilbene]
clearance from normal tissues [2]: insufficient in clearance from normal tissues

SMILES: FCCCOc1ccc(-c2cn3cc([125I])ccc3n2)cc1 [Compound I-6, 2-[4′-(3″-fluoropropoxy)phenyl]-6-[^125I]iodoimidazo[1,2-a]pyridine]
slope of radioactive count on glass fiber relative to concentration of amyloid (index of intensity of binding to amyloid) [7]: greater than the slope for [^125I]-IMPY

SMILES: FCCCOc1ccc(-c2cn3cc([123I])ccc3n2)cc1 [Compound I-7, 2-[4′-(3″-fluoropropoxy)phenyl]-6-[^123I]iodoimidazo[1,2-a]pyridine]
Radioactive distribution per unit weight in brain, After 2 min. [8]: 1.10 % ID/g
Radioactive distribution per unit weight in brain, After 5 min. [8]: 0.75 % ID/g
Radioactive distribution per unit weight in brain, After 30 min. [8]: 0.12 % ID/g
Radioactive distribution per unit weight in brain, After 60 min. [8]: 0.05 % ID/g
accumulation of radioactivity on intracerebral amyloid (autoradiogram) [9]: possesses a property of accumulating on intracerebral amyloid and a capability of imaging intracerebral amyloid

Radioactive distribution per unit weight in brain, After 2 min. [8]: 1.20 % ID/g
Radioactive distribution per unit weight in brain, After 5 min. [8]: 0.75 % ID/g
Radioactive distribution per unit weight in brain, After 30 min. [8]: 0.18 % ID/g
Radioactive distribution per unit weight in brain, After 60 min. [8]: 0.12 % ID/g
logPoctanol value [10]: 2.0
SMILES: [18F]CCCOc1ccc(-c2cn3cc(Br)ccc3n2)cc1 [Compound I-8, 6-bromo-2-[4′-(3″-[^18F]fluoropropoxy)-phenyl]imidazo[1,2-a]pyridine]

SMILES: FCCCOc1ccc(-c2cn3cc(I)ccc3n2)cc1 [Compound I-2, 2-[4′-(3″-fluoropropoxy)phenyl]-6-iodoimidazo[1,2-a]pyridine]
IC50 [3]: 0.9 nM
Mutagenicity, TA98, With addition of S9mix [4]: Negative
Mutagenicity, TA98, Without addition of S9mix [4]: Negative
Mutagenicity, TA100, With addition of S9mix [5]: Negative
Mutagenicity, TA100, Without addition of S9mix [5]: Negative
Inhibition ratio (%) of binding of amyloid (amylin) to Thioflavin T (amyloid (amylin); compound 1.5 μmol/L): 28.9%
Inhibition ratio (%) of binding of amyloid (amylin) to Thioflavin T (amyloid (amylin); compound 15 μmol/L): 26.6%
Inhibition ratio (%) of binding of amyloid (amylin) to Thioflavin T (amyloid (amylin); compound 30 μmol/L): 28.2%
Ames test judgment [6]: negative

SMILES: CC(=C(C#N)C#N)c1ccc2cc(N(C)CCF)ccc2c1 [FDDNP, 2-(1-{6-[(2-fluoroethyl)(methyl)amino]-2-naphthyl}ethylidene)malononitrile]
reverse mutation test [11]: positive

SMILES: FCCCOc1ccc(-c2cn3cc(I)cnc3n2)cc1 [Compound I-5, 2-[4′-(3″-fluoropropoxy)phenyl]-6-iodoimidazo[1,2-a]pyrimidine]
IC50 [3]: 55.4 nM
Mutagenicity, TA98, With addition of S9mix [4]: Negative
Mutagenicity, TA98, Without addition of S9mix [4]: Negative
Mutagenicity, TA100, With addition of S9mix [5]: Negative
Mutagenicity, TA100, Without addition of S9mix [5]: Negative
Ames test judgment [6]: negative

IC50 [3]: 1.8 nM
SMILES: FCCOc1ccc(-c2cn3cc(Br)ccc3n2)cc1 [Compound I-3, 6-bromo-2-[4′-(2″-fluoroethoxy)phenyl]imidazo[1,2-a]pyridine]

SMILES: CN(C)c1ccc(-c2nc3ccc(I)cc3o2)cc1 [IBOX, 6-iodo-2-[4′-(N,N-dimethylamino)phenyl]benzoxazole]
clearance from normal tissues [2]: insufficient in clearance from normal tissues
